Experimental data as given in patent US7786137B2, “Bicyclic derivatives as modulators of ion channels” (Vertex Pharmaceuticals Incorporated, priority 2005, dated 2010).

Each compound was assayed against NaV1.3 (Homo sapiens, UniProt Q9NY46) (assay: VIPR optical membrane potential assay, NaV1.3 inhibition). Details: activity against NaV 1.3 channel.
Assay type: cell-based
Parameters: expressed in transfected cells; host or cells: HEK293
Experimental: Antagonist properties of test compounds were assessed as follows. Cells expressing the NaV of interest were placed into microtiter plates. After an incubation period, the cells were stained with fluorescent dyes sensitive to the transmembrane potential. The test compounds were added to the microtiter plate. The cells were stimulated with either a chemical or electrical means to evoke a NaV dependent membrane potential change from unblocked channels, which was detected and measured with trans-membrane potential-sensitive dyes. Antagonists were detected as a decreased membrane potential response to the stimulus.
The following is an example of how NaV1.3 inhibition activity is measured using the optical membrane potential method#2. Other subtypes are performed in an analogous mode in a cell line expressing the NaV of interest.
HEK293 cells stably expressing NaV1.3 are plated into 96-well microtiter plates. After an appropriate incubation period, the cells are stained with the voltage sensitive dyes CC2-DMPE/DiSBAC2(3) as follows.
2× CC2-DMPE=20 μM CC2-DMPE: 10 mM CC2-DMPE is vortexed with an equivalent volume of 10% pluronic, followed by vortexing in required amount of HBSS containing 10 mM HEPES. Each cell plate will require 5 mL of 2× CC2-DMPE. 50 μL of 2× CC2-DMPE is to wells containing washed cells, resulting in a 10 μM final staining concentration. The cells are stained for 30 minutes in the dark at RT.
2× DISBAC2(3) with ABSC1=6 μM DISBAC2(3) and 1 mM ABSC1: The required amount of 10 mM DISBAC2(3) is added to a 50 ml conical tube and mixed with 1 μL 10% pluronic for each mL of solution to be made and vortexed together. Then HBSS/HEPES is added to make up 2× solution. Finally, the ABSC1 is added.
The 2× DiSBAC2(3) solution can be used to solvate compound plates. Note that compound plates are made at 2× drug concentration. Wash stained plate again, leaving residual volume of 50 μL. Add 50 μL/well of the 2× DiSBAC2(3) w/ABSC1. Stain for 30 minutes in the dark at RT.
The instrument comprises a microtiter plate handler, an optical system for exciting the coumarin dye while simultaneously recording the coumarin and oxonol emissions, a waveform generator, a current- or voltage-controlled amplifier, and a device for inserting electrodes in well. Under integrated computer control, this instrument passes user-programmed electrical stimulus protocols to cells within the wells of the microfilter plate.
Insert or use electrodes into each well to be assayed.
Use the current-controlled amplifier to deliver stimulation wave pulses for 3 s. Two seconds of pre-stimulus recording are performed to obtain the un-stimulated intensities. Five seconds of post-stimulation recording are performed to examine the relaxation to the resting state.
Data are analyzed and reported as normalized ratios of background-subtracted emission intensities measured in the 460 nm and 580 nm channels. Background intensities are then subtracted from each assay channel. Background intensities are obtained by measuring the emission intensities during the same time periods from identically treated assay wells in which there are no cells. The response as a function of time is then reported as the ratios obtained using the following formula: […]
The data is further reduced by calculating the initial (Ri) and final (Rf) ratios. These are the average ratio values during part or all of the pre-stimulation period, and during sample points during the stimulation period. The response to the stimulus ? =Rf/Ri is then calculated.
Control responses are obtained by performing assays in the presence of a compound with the desired properties (positive control), such as tetracaine, and in the absence of pharmacological agents (negative control). Responses to the negative (N) and positive (P) controls are calculated as above. The compound antagonist activity A is defined as:
[formula] where R is the ratio response of the test compound.

Sequence of NaV1.3 (Q9NY46 whole entry): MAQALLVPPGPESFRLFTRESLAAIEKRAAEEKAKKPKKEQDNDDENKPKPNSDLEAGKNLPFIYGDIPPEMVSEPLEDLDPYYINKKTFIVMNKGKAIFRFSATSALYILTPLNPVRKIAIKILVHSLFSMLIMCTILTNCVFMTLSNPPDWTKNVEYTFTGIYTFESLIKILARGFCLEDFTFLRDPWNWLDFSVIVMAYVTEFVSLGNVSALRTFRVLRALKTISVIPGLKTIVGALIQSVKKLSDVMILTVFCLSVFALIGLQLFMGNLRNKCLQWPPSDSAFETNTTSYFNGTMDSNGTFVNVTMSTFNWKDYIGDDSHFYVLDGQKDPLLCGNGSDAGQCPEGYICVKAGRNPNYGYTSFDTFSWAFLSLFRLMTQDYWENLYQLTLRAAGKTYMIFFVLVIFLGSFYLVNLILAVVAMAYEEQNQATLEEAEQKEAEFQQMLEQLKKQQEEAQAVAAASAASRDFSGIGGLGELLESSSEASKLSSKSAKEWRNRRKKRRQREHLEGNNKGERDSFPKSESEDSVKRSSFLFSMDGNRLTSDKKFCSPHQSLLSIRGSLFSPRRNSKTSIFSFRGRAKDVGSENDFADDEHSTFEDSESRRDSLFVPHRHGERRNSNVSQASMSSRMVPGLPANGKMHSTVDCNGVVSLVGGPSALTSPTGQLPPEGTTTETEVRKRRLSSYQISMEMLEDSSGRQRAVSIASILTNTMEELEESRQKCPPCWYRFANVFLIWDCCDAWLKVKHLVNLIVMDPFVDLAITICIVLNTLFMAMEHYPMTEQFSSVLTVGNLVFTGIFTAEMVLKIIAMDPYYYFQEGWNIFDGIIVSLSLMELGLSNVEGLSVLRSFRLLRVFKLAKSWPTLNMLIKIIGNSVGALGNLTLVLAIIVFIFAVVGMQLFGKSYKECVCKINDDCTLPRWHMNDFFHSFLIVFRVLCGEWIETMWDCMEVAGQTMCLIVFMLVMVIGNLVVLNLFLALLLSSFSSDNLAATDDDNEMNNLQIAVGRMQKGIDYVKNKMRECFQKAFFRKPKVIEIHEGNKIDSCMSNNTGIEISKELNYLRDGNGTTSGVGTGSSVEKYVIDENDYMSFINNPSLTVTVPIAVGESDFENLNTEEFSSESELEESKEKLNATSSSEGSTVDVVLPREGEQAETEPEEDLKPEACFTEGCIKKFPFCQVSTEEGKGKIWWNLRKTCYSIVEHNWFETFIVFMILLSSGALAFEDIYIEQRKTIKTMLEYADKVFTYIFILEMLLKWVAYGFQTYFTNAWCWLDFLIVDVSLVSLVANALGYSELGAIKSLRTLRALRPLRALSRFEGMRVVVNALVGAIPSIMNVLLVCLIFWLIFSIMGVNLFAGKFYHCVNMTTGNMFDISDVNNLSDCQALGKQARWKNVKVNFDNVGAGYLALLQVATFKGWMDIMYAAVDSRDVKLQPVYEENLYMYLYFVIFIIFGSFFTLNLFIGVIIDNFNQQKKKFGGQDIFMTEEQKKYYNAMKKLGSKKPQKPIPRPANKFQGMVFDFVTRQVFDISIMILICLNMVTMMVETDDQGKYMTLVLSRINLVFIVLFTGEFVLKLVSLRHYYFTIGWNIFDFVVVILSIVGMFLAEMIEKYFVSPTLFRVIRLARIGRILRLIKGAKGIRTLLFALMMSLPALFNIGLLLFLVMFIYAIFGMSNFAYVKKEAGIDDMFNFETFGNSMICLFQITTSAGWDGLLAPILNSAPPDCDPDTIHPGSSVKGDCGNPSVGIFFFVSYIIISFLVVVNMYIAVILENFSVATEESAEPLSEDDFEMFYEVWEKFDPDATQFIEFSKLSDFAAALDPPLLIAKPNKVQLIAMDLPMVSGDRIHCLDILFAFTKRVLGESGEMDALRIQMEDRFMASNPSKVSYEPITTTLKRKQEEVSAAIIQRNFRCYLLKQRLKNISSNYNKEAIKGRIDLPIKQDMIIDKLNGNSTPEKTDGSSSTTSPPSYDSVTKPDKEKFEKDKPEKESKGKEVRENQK

Compound	IC50
Cc1ccccc1CNCC(=O)N1CCc2cc(S(=O)(=O)Nc3nccs3)ccc21 [Compound 35]	2000 to 5000 nM
O=C(c1cc(F)ccc1F)N1CCc2ccc(S(=O)(=O)Nc3nccs3)cc2C1 [Compound 74]	> 5000 nM
O=C(c1ccc(Cl)c(Cl)c1)N1CCc2cc(S(=O)(=O)Nc3nccs3)ccc21 [Compound 90]	< 2000 nM
CCc1nnc(NS(=O)(=O)c2ccc3c(c2)CN(C(=O)[C@@H](C)n2ccc4c(F)cccc42)C3)s1 [Compound 105]	2000 to 5000 nM
Cc1ccc(F)c(C(=O)N2CCc3cc(S(=O)(=O)Nc4nccs4)ccc32)c1 [Compound 4]	> 5000 nM
O=C(Cn1ccc2cccc(Cl)c21)N1CCc2ccc(S(=O)(=O)Nc3nccs3)cc2C1 [Compound 69]	> 5000 nM
O=C(Cc1ccc(OC(F)(F)F)cc1)N1CCc2cc(S(=O)(=O)Nc3nccs3)ccc21 [Compound 51]	< 2000 nM
Cc1ccc(CC(=O)N2CCc3cc(S(=O)(=O)Nc4nccs4)ccc32)cc1 [Compound 26]	< 2000 nM
O=C(Cc1ccc(C(F)(F)F)cc1)N1CCc2cc(S(=O)(=O)Nc3nccs3)ccc21 [Compound 63]	< 2000 nM
O=C(CNCc1ccccc1)N1CCc2cc(S(=O)(=O)Nc3nccs3)ccc21 [Compound 24]	> 5000 nM
Cc1ccccc1CNCCN1CCc2cc(S(=O)(=O)Nc3nccs3)ccc21 [Compound 99]	> 5000 nM
O=C(c1c(F)cc(F)cc1F)N1CCCc2cc(S(=O)(=O)Nc3nccs3)ccc21 [Compound 76]	> 5000 nM
O=C(COc1ccc(Cl)cc1)N1CCc2ccc(S(=O)(=O)Nc3nccs3)cc2C1 [Compound 23]	> 5000 nM
CC(Oc1cccc(Cl)c1)C(=O)N1Cc2ccc(S(=O)(=O)Nc3nccs3)cc2C1 (stereo not shown) [Compound 62]	< 2000 nM
O=C(COc1ccnc2c(C(F)(F)F)cccc12)N1CCc2cc(S(=O)(=O)Nc3ncns3)ccc21 [Compound 71]	< 2000 nM
O=C(COc1ccc(Cl)c(Cl)c1)n1ccc2cc(S(=O)(=O)Nc3nccs3)ccc21 [Compound 19]	> 5000 nM
Cc1ccc(OCC(=O)N2CCc3cc(S(=O)(=O)Nc4ncns4)ccc32)cc1C [Compound 97]	< 2000 nM
Cc1ccc(OCC(=O)N2CCc3ccc(S(=O)(=O)Nc4nccs4)cc3C2)cc1 [Compound 25]	> 5000 nM
O=C(N1CCc2cc(S(=O)(=O)Nc3nccs3)ccc21)C1(c2ccccc2)CC1 [Compound 54]	< 2000 nM
COc1ccc(CC(=O)N2CCc3cc(S(=O)(=O)Nc4nccs4)ccc32)cc1 [Compound 5]	< 2000 nM
O=C(COc1cccc(Cl)c1)N1CCCc2cc(S(=O)(=O)Nc3ncns3)ccc21 [Compound 53]	2000 to 5000 nM
O=C(COc1cccc(Cl)c1Cl)N1CCc2cc(S(=O)(=O)Nc3nccs3)ccc21 [Compound 67]	< 2000 nM
O=C(CN1CCc2ccccc2C1)N1CCCc2cc(S(=O)(=O)Nc3nccs3)ccc21 [Compound 15]	2000 to 5000 nM
O=C(ON1Cc2ccc(S(=O)(=O)Nc3nccs3)cc2C1)c1cccc(C(F)(F)F)c1 [Compound 59]	< 2000 nM
CC(C(=O)N1Cc2ccc(S(=O)(=O)Nc3ncns3)cc2C1)N1CCCc2cc(Cl)ccc21 (stereo not shown) [Compound 57]	< 2000 nM

Results, then the compound that gave them:

IC50	Compound
2000 to 5000 nM	O=C(c1ccc(Cl)c(Cl)c1)n1ccc2cc(S(=O)(=O)Nc3nccs3)ccc21 [Compound 126]
< 2000 nM	Cc1ccc(OCC(=O)N2Cc3ccc(S(=O)(=O)Nc4nccs4)cc3C2)cc1C [Compound 190]
< 2000 nM	CC(C)(C)c1ccc(OCC(=O)N2CCCc3cc(S(=O)(=O)Nc4ncns4)ccc32)cc1 [Compound 139]
< 2000 nM	O=C(CCn1ccc2cc(Cl)ccc21)N1Cc2ccc(S(=O)(=O)Nc3ncns3)cc2C1 [Compound 127]
< 2000 nM	Cc1ccc(C(=O)n2ccc3cc(S(=O)(=O)Nc4nccs4)ccc32)cc1F [Compound 128]
> 5000 nM	COc1ccc(CC(=O)N2CCc3ccc(S(=O)(=O)Nc4nccs4)cc3C2)cc1 [Compound 168]
> 5000 nM	O=C(CN1CCCc2cc(Cl)ccc21)N1CCc2cc(S(=O)(=O)Nc3ccncn3)ccc21 [Compound 133]
2000 to 5000 nM	CC(Oc1cccc(Cl)c1)C(=O)N1CCc2ccc(S(=O)(=O)Nc3nccs3)cc2C1 (stereo not shown) [Compound 174]
2000 to 5000 nM	CCc1nnc(NS(=O)(=O)c2ccc3c(c2)CN(C(=O)[C@@H](C)N2CCCc4cc(Cl)ccc42)C3)s1 [Compound 135]
< 2000 nM	O=C(c1ccc(Cl)cc1Cl)N1CCc2cc(S(=O)(=O)Nc3nccs3)ccc21 [Compound 116]
> 5000 nM	Cc1nnc(NS(=O)(=O)c2ccc3c(c2)CN(C(=O)COc2ccnc4c(C(F)(F)F)cccc24)CC3)s1 [Compound 152]
< 2000 nM	CC(C(=O)N1CCc2cc(S(=O)(=O)Nc3nccs3)ccc21)n1ccc2ccccc21 (stereo not shown) [Compound 204]
> 5000 nM	C[C@@H](C(=O)N1Cc2ccc(S(=O)(=O)Nc3ccncn3)cc2C1)n1ccc2c(F)cccc21 [Compound 203]
< 2000 nM	O=C(CCn1ccc2cc(Cl)ccc21)N1CCc2cc(S(=O)(=O)Nc3nccs3)ccc21 [Compound 209]
< 2000 nM	COc1ccc(CCC(=O)n2ccc3cc(S(=O)(=O)Nc4nccs4)ccc32)cc1 [Compound 187]
< 2000 nM	O=C(CCc1ccccc1)N1CCc2cc(S(=O)(=O)Nc3nccs3)ccc21 [Compound 197]
> 5000 nM	CC(C(=O)n1ccc2cc(S(=O)(=O)Nc3nccs3)ccc21)n1ccc2ccccc21 (stereo not shown) [Compound 201]

IC50	Compound
< 2000 nM	O=C(CN1CCCc2cc(Cl)ccc21)N1Cc2ccc(S(=O)(=O)Nc3ncns3)cc2C1 [Compound 120]
> 5000 nM	O=C(COc1cccnc1)N1CCc2cc(S(=O)(=O)Nc3nccs3)ccc21 [Compound 129]
< 2000 nM	O=C(COc1ccc(Cl)cc1)N1CCc2cc(S(=O)(=O)Nc3ncns3)ccc21 [Compound 147]
2000 to 5000 nM	Cc1ccc(F)c(C(=O)n2ccc3cc(S(=O)(=O)Nc4nccs4)ccc32)c1 [Compound 195]
< 2000 nM	O=C(COc1ccnc2c(C(F)(F)F)cccc12)N1CCc2ccc(S(=O)(=O)Nc3nccs3)cc2C1 [Compound 140]
< 2000 nM	O=C(c1cc(Cl)ccc1Cl)N1CCc2cc(S(=O)(=O)Nc3nccs3)ccc21 [Compound 109]
< 2000 nM	Cc1ccc(C(=O)N2CCc3cc(S(=O)(=O)Nc4ncns4)ccc32)cc1Cl [Compound 179]
< 2000 nM	CC(C)(C)c1ccc(OCC(=O)N2CCCc3cc(S(=O)(=O)Nc4nccs4)ccc32)cc1 [Compound 206]
< 2000 nM	O=C(Cc1ccccc1)N1CCc2cc(S(=O)(=O)Nc3nccs3)ccc21 [Compound 188]
> 5000 nM	O=C(CCCOc1ccc(Cl)cc1Cl)N1CCc2cc(S(=O)(=O)Nc3ncccn3)ccc21 [Compound 156]
2000 to 5000 nM	O=C(c1ccc(Cl)cc1Cl)N1CCc2ccc(S(=O)(=O)Nc3nccs3)cc2C1 [Compound 151]
< 2000 nM	CC(C)(C)c1ccc(OCC(=O)N2Cc3ccc(S(=O)(=O)Nc4nccs4)cc3C2)cc1 [Compound 155]
2000 to 5000 nM	COc1ccc(F)cc1C(=O)n1ccc2cc(S(=O)(=O)Nc3nccs3)ccc21 [Compound 110]
> 5000 nM	O=C(CN1CCC(F)(F)CC1)N1CCCc2cc(S(=O)(=O)Nc3nccs3)ccc21 [Compound 175]
< 2000 nM	C[C@@H](C(=O)N1Cc2ccc(S(=O)(=O)Nc3ncns3)cc2C1)n1ccc2ccccc21 [Compound 164]
< 2000 nM	O=C(COc1ccccc1)N1CCc2cc(S(=O)(=O)Nc3nccs3)ccc21 [Compound 112]
